Measurements published in patent publication US8853424B2 (Japan Science and Technology Agency, priority 2008, dated 2014).
Read-outs that look alike come from different tables or passages of the source.

What was measured:
[1] = system: transglutaminase (TGase); test: Measurement of TG (TGase inhibitory activity, monodansyl cadaverine / N,N-dimethylcasein fluorescence, FDSS 3000); type: biochemical
Procedure, shortened: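 Compound (1 μL of 10 mM stock) added to 0.1 mL reaction: 100 mM HEPES-NaOH pH 7.5, 1 mM CaCl2, 20 μM monodansyl cadaverine, 0.05 mg/mL N,N-dimethylcasein, 5 μg/mL TGase. Rate of fluorescence change at 340 nm measured; DMSO control set to 100; TG50 is the concentration halving activity.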

[2] = system: SOC (store operated calcium channel); test: Measurement of SOC IC50 (thapsigargin store depletion, calcium re-addition, CHO cells); type: cell-based; conditions: read-out: SOC IC50
Method: The SOC (store operated calcium channel)-suppressive action can be measured by the method described in the Example and using, for example, FDSS 3000.
CHO cell culture medium was replaced with a BSS solution which is an extracellular fluidfree of calcium, the compound of the present invention was added 1 min later, and 1 μM thapsigargin was allowed to act thereon 2 min later to deplete intracellular calcium store. […]

[3] = system: Truncated N-terminal huntington 150 Q-EGFP-Neuron 2a cells; test: Measurement of x-Fold (polyglutamine aggregation inhibitory activity); type: cell-based
Method: In the present invention, the polyglutamine aggregation inhibitory activity (x-Fold) can be measured, for example, by the method described in the Example.
The number of the aggregated cells, and the total number of cells were counted by Array Scan V T1 (manufactured by Cellomics, Pittuburg, USA), and the ratio of the aggregated cells to the total number of cells was determined (x-Fold). […]

[4] = TGase activity with compound (10 mM, 1 μL in 0.1 ml enzyme reaction solution), DMSO control taken as 100
[5] = TGase inhibitory activity value, Table 1
[6] = Cricetulus griseus, CHO, CHO cells, 1 μM thapsigargin, 2 mM calcium chloride
[7] = Cricetulus griseus, CHO, Table 1
[8] = polyglutamine aggregation inhibitory activity, Table 1
[9] = ratio of aggregated cells to total number of cells, compound 20 μM, 20 hr, almost 1 without compound, smaller = stronger inhibition
[10] = CHO cells, 1 μM thapsigargin, 2 mM calcium chloride
[11] = TGase inhibitory activity measurement, unit not given
[12] = polyglutamine aggregation, Truncated N-terminal huntington 150 Q-EGFP-Neuron 2a cells

Row | Compound | TGase activity remaining (% of DMSO control = 100) [1, 4] | TGase activity remaining (% of DMSO control = 100) [1, 5] | x-Fold [3, 8] | x-Fold [3, 9] | IC50 [2, 10] | TGase activity remaining (% of DMSO control = 100) [1, 11] | x-Fold [3, 12] | also measured
1 | Cc1ccc(B(OC(=O)C(N)CN)c2ccc(C)c(Cl)c2)cc1Cl (centres unmarked) [Example 71, di(3-chloro-4-methylphenyl)(2,3-diaminopropionate-O,N)borane] | 51 | 51 | 0.97 | 0.97 |  |  |  | IC50 [2, 6]: 1 µM; IC50 [2, 7]: 1 µM
2 | Cc1ccc(B(OC(=O)C(N)CC(N)=O)c2ccc(C)c(Cl)c2)cc1Cl (centres unmarked) [Example 282, di(3-chloro-4-methylphenyl)(asparaginate-O,N)borane] | 112 |  |  | 0.95 |  |  |  | IC50 [2, 6]: 0.3 µM
3 | NC(=O)CCC(N)C(=O)OB(c1ccccc1)c1ccc(Oc2ccc(B(OC(=O)C(N)CCC(N)=O)c3ccccc3)cc2)cc1 (centres unmarked) [Example 273, bis(4,4′-(phenyl-glutamineboryl)phenyl)ether] | 83 |  |  | 0.56 | 0.25 µM |  |  | TGase activity remaining (% of DMSO control = 100) ([1]; TGase inhibitory activity value, Table 1, listed as 1024): 83; x-Fold ([3]; polyglutamine aggregation inhibitory activity, Table 1, listed as 1024): 0.56
4 | NC(=O)CC(N)C(=O)OB(c1ccccc1)c1cccc(COCc2cccc(B(OC(=O)C(N)CC(N)=O)c3ccccc3)c2)c1 (centres unmarked) [Example 474, bis(3,3′-(phenyl-asparagineboryl)benzyl)ether] | 145 |  |  | 1.04 | 0.5 µM |  |  | TGase activity remaining (% of DMSO control = 100) ([1]; TGase inhibitory activity measurement, unit not given, listed as 3031): 145; x-Fold ([3]; polyglutamine aggregation, Truncated N-terminal huntington 150 Q-EGFP-Neuron 2a cells, listed as 3031): 1.04
5 | CC(CN)OB(c1ccccc1)c1ccc(COCc2ccc(B(OC(C)CN)c3ccccc3)cc2)cc1 (centres unmarked) [Example 458, bis(4,4′-(phenyl-1-methyl-2-aminoethoxyboryl)benzyl)ether] | 31 |  |  | 1.10 | 0.5 µM | 31 | 1.10 | 
6 | OB(c1ccccc1)c1ccc(COCc2ccccc2B(O)c2ccccc2)cc1 [Example 331, (2-(phenylhydroxyboryl)benzyl)(4-(phenylhydroxyboryl)benzyl)ether] | 101 | 101 | 0.98 | 0.98 |  |  |  | IC50 [2, 6]: 1 µM; IC50 [2, 7]: 1 µM
7 | NC(=O)CC(N)C(=O)OB(c1ccccc1)c1ccc(Oc2ccc(B(O)c3ccccc3)cc2)cc1 (single isomer, unassigned) [Example 6, (4-(phenylasparagineboryl)phenyl)(4′-(phenylhydroxyboryl)phenyl)ether] | 23 |  |  | 1.01 |  |  |  | TGase activity remaining (% of DMSO control = 100) ([1]; TGase inhibitory activity value, Table 1, listed as 7132): 23; IC50 [2, 7]: 0.2 µM; x-Fold ([3]; polyglutamine aggregation inhibitory activity, Table 1, listed as 7132): 1.01
8 | NC(=O)CCC(N)C(=O)OB(c1ccccc1)c1ccc(Oc2ccc(B(OC(=O)C(N)CCC(N)=O)c3ccccc3)cc2)cc1 (centres unmarked) [Example 388, bis(4,4′-(phenyl-glutamineboryl)phenyl)ether] | 41 |  |  | 0.67 | 0.5 µM |  |  | TGase activity remaining (% of DMSO control = 100) ([1]; TGase inhibitory activity value, Table 1, listed as 7085): 41; x-Fold ([3]; polyglutamine aggregation inhibitory activity, Table 1, listed as 7085): 0.67
9 | NC(COB(c1ccccc1)c1ccc(Oc2ccc(B(OCC(N)Cc3ccccc3)c3ccccc3)cc2)cc1)Cc1ccccc1 (centres unmarked) [Example 480, bis(4,4′-(phenyl-2-benzyl-2-amino-ethoxyboryl)phenyl)ether] | 59 |  |  | 0.66 | 1.5 µM | 59 | 0.66 | 
10 | OB(c1ccccc1)c1ccc(COCc2ccc(B(O)c3ccccc3)cc2)cc1 [Example 137, bis((4,4′-phenylhydroxyboryl)benzyl)ether] | 14 |  |  | 0.99 | 0.3 µM |  |  | 
11 | CNCCOB(c1ccccc1)c1cccc(COCc2cccc(B(OCCNC)c3ccccc3)c2)c1 [Example 469, bis(3,3′-(phenyl-N-methylaminoethoxyboryl)benzyl)ether] | 15 |  |  | 0.94 | 0.25 µM | 15 | 0.94 | 
12 | 4,4′(phenyl-2-aminoethoxyboryl)diphenyl [Example 10] | 7 | 7 | 0.92 | 0.92 | 0.5 µM |  |  | 
13 | OCCCCB(O)c1ccccc1 [Example 114, 4-hydroxybutylphenylborinic acid] | 120 | 120 | 0.99 | 0.99 |  |  |  | IC50 [2, 6]: 2 µM; IC50 [2, 7]: 2 µM
14 | N=C(N)NCCCC(N)C(=O)OB(c1ccccc1)c1ccccc1 (centres unmarked) [Example 122, diphenyl(argininate-O,N)borane] | 93 | 93 | 0.98 | 0.98 |  |  |  | IC50 [2, 6]: 7 µM; IC50 [2, 7]: 7 µM
15 | CN(C)CCOB(c1ccc(COCc2ccc(B(OCCN(C)C)c3ccc(C(F)(F)F)cc3)cc2)cc1)c1ccc(C(F)(F)F)cc1 [Example 424, bis(4,4′-(p-trifluoromethylphenyl-N,N-dimethylaminoethoxyboryl)benzyl)ether] | 22 |  | 0.69 | 1.03 | 1.2 µM | 22 | 1.03 | 
16 | NC(=O)CCC(N)C(=O)OB(c1ccccc1)c1cccc(COCc2cccc(B(OC(=O)C(N)CCC(N)=O)c3ccccc3)c2)c1 (centres unmarked) [Example 471, bis(3,3′-(phenyl-glutamineboryl)benzyl)ether] | 52 |  |  | 1.04 | 0.6 µM | 52 | 1.04 | 
17 | OB(c1ccccc1)c1ccccc1COCc1ccccc1B(O)c1ccccc1 [Example 486, bis(2,2′-(phenylhydroxyboryl)benzyl)ether] | 52 |  |  | 1.04 | 0.5 µM |  |  | 
18 | c1ccc(B(OCC2CCCCN2)c2cccc(COCc3cccc(B(OCC4CCCCN4)c4ccccc4)c3)c2)cc1 (centres unmarked) [Example 463, bis(3,3′-(phenyl-2-piperidylmethoxyboryl)benzyl)ether] | 24 |  |  | 0.92 | 0.3 µM | 24 | 0.92 | 
19 | c1ccc(B(OCC2CCCN2)c2cccc(COCc3cccc(B(OCC4CCCN4)c4ccccc4)c3)c2)cc1 (centres unmarked) [Example 460, bis(3,3′-(phenyl-2-pyrrolidinomethoxyboryl)benzyl)ether] | 26 |  |  | 0.95 | 0.4 µM | 26 | 0.95 | 
20 | NCCOB(c1ccccc1)c1ccccc1 [Example 487, 2-aminoethyl diphenylborinate] | 90 |  |  | 0.64 |  |  |  | IC50 ([2]; Cricetulus griseus, CHO): 3 µM
21 | Cc1ccc(B(OCC2CCCCN2)c2ccc(COCc3ccc(B(OCC4CCCCN4)c4ccc(C)c(Cl)c4)cc3)cc2)cc1Cl (centres unmarked) [Example 423, bis(4,4′-(3-chloro-4-methylphenyl-2-piperidylmethoxyboryl)benzyl)ether] | 27 |  |  | 0.76 | 1.2 µM | 27 | 0.76 | 
22 | NCCNCCOB(c1ccccc1)c1ccc(Oc2ccc(B(OCCNCCN)c3ccccc3)cc2)cc1 [Example 396, bis(4,4′-(phenyl-N-aminoethyl-aminoethoxyboryl)phenyl)ether] | 3 | 3 | 0.58 | 0.58 | 1.2 µM |  |  | 
23 | Cc1ccc(B(OCC(N)c2ccccc2)c2ccc(C)c(Cl)c2)cc1Cl (centres unmarked) [Example 214] | −7 | −7 | 0.90 | 0.90 |  |  |  | IC50 [2, 6]: 2 µM; IC50 [2, 7]: 2 µM
24 | OB(c1ccc(Oc2ccc(B(O)c3ccc(C(F)(F)F)cc3)cc2)cc1)c1ccc(C(F)(F)F)cc1 [Example 325, bis(4-(4-trifluoromethylphenylhydroxyboryl)phenyl)ether] | 92 | 92 | 0.99 | 0.99 |  |  |  | IC50 [2, 6]: 4 µM; IC50 [2, 7]: 4 µM
